{
  "source": "patent EP0386076B1",
  "about": "“PHOSPHORYLED DERIVATIVES OF CARDIODILATINE/ANF PEPTIDES” (FORSSMANN, Wolf-Georg, Prof. Dr. med., priority 1987, dated 1993)",
  "key": {"[1]": {"tested_on": "c-AMP-abhängiger Proteinkinase", "details": "peptide as substrate of c-AMP-abhängiger Proteinkinase; read-out: Michaeliskonstante Km; cited from earlier work"}, "[2]": {"tested_on": "Muskelstreifen von Kaninchenaorta", "assay": "Relaxation of norepinephrine-precontracted rabbit aorta muscle strips in an organ bath", "parameters": "species or system Neuseeland-Kaninchen", "excerpt": "Muskelstreifen von Kaninchenaorta wurden zunächst mit einer Lösung von Norepinephrin (10⁻⁷ M) kontrahiert. Nachdem sich konstante Bedingungen eingestellt hatten, wurden die Peptide hinzugefügt (Position des Pfeils).\nDie Abbildung 6 zeigt die Reaktion von Kaninchenaorta-Muskelstreifen auf die schrittweise Zugabe von nicht phosphoryliertem, phosphoryliertem und danach wieder nicht phosphoryliertem Alpha-hANaP (CDD-28). Die Verbindungen wurden jeweils so zugegeben, daß sie im Untersuchungsbad in einer Endkonzentration von 0,3 x 10⁻⁹ M vorlagen.\nAortae von Neuseeland-Kaninchen wurden präpariert. Die Muskelspannung wurde an Muskelstreifen in einem Organbad, enthaltend physiologische Kochsalzlösung, gemessen. Die Streifen wurden vorkontrahiert mit einer Lösung von 10⁻⁶ M Norepinephrin, danach bei vollständiger Relaxation. Für den Assay wurde eine weitere Kontraktion mit 10⁻⁷ M Norepinephrin ausgelöst. Nachdem konstante Kontraktionsbedingungen erreicht waren, wurden die Peptide appliziert.\nZur Kontrolle wurde nicht phosphoryliertes Alpha-hANaP unter gleichen Bedingungen inkubiert, jedoch ohne Anwesenheit von ATP. Phosphoryliertes und nicht phosphoryliertes Alpha-hANaP wurde zu den vorkontrahierten Kaninchenaorta-Muskelstreifen gegeben, so daß sie in einer Endkonzentration von 0,3 x 10⁻⁹ M vorlagen. […]"}},
  "note": "Ends that are not written are not given here.",
  "data": [
    {"substance": "Arg¹⁰¹-Tyr¹²⁶", "values": [
      {"measurement": "Km", "setting": "[1]", "value": 500, "unit": "nM"}
    ]},
    {"substance": "phosphorylierte CDD-32: CDD-32 (Urodilatin, ANF/CDD-95-126) phosphorylated according to Beispiel 1; Formel I with R = Aminosäuren 95-98 (TAPRSLRRSSCFGGRMDRIGAQSGLGCNSFRY; ends and bridges not checked; also: phosphorylated (phosphate group), site not given here; UniProt P01160 120-151, looked up, fragment)", "values": [
      {"measurement": "relatives Relaxationsvermögen", "setting": "[2]; Abbildung 7, phosphorylated versus non-phosphorylated form at corresponding concentration", "value": "deutlich geringeres Relaxationsvermögen"},
      {"measurement": "Relaxationsaktivität", "setting": "[2]; Beispiel 6, tested analogously to Beispiel 5, several concentrations", "value": "deutlich geringere Relaxation"}
    ]}
  ]
}
